From article PMC6018403 (Frontiers in Pharmacology, 2018)

Tested on: Caco-2 cell monolayer
Test: Caco-2 cell monolayer permeability test (bidirectional transport of berberine)
Format: in vitro ADME, Human
Conditions: BER 5 μM
Protocol: The final concentration of GQD, GQD−GC, and Huang-Lian water extracts were 32, 28, and 6 μg/mL, respectively. […]
containing glucose (25 mM) and HEPES (10 mM). The final concentration of berberine was 5 µM. The final concentration of DMSO was below 1% (v/v). […]
inducer of Caco-2 cells, respectively. For the inhibitor experiments, the Caco-2 cells were cultivated in DMEM until the 21st day. After removal of the medium, the cells were incubated for 30 minutes with HBSS containing 5 µM of verapamil. For the inducer experiments, the cells were cultivated in DMEM until the 18th day, and then […]
was removed on the 21st day, and the cells were then incubated for 30 min with HBSS.
Berberine and glycyrrhizic acid were added to the system following HBSS incubation.
For all bidirectional transport assays, samples (300 µL) were collected after 30, 60, 90, […]
with an equal volume of HBSS. The samples were freeze-dried and then dissolved in 300 µL of methanol. The solutions were filtered through 0.22-µm membranes before […]
3. Inhibitor and inducer experiments […]
respectively. For the inhibition experiments, Caco-2 cells were cultivated in DMEM until the 21st day. After removal of the medium, the cells were incubated for 30 minutes with HBSS containing verapamil (5 µM). For induction experiments, the cells were cultivated in DMEM until the 18th day, and then cultivated in DMEM […]
The medium was removed on the 21st day, and the cells were then incubated for 30 min with HBSS. Berberine and glycyrrhizic acid were added to the system following HBSS incubation.

transport rate of BER, PAB (influx, apical to basolateral) (with GLY 5 μM): 84%
transport rate of BER, PBA (efflux) (with GLY 5 μM): 10%
transport rate of BER, PAB (influx, apical to basolateral) (without GLY): 59%
transport rate of BER, PBA (efflux) (without GLY): 34%
Structure (SMILES): COc1ccc2cc3[n+](cc2c1OC)CCc1cc2c(cc1-3)OCO2 [Compound 24, berberine]
